Here are results for 20 molecules from patent US10316017B2, “COT modulators and methods of use thereof” (Gilead Sciences, Inc., priority 2015, dated 2019).

Molecules are shown by their SMILES. Bounds are passed on as bounds.

For test [1], the system named is TNFα production in LPS-stimulated human monocytes. As to the kind of experiment: Cot Monocyte TNFα Cell Based Assay. As to conditions: Homo sapiens, Monocyte, TNFα in LPS-stimulated human monocytes; read-out: EC50 TNF. A digest of the protocol: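 5,000 cells/well; cmpd 1 h, 37 °C, 0.5% DMSO final; LPS 50 pg/ml, 4 h, 37 °C; media TNFα by HTRF sandwich (cryptate/XL665), RT overnight; % control vs unstimulated/stimulated wells.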

Test [2] deals with T1, human Cot catalytic domain (30-397 amino acids) (Homo sapiens, UniProt P41279).
T1 construct: Purified recombinant human Cot catalytic domain (30-397 amino acids) was purchased from Cama Biosciences; purchased Cama Biosciences (so in the source)
T1 sequence (P41279 30-397): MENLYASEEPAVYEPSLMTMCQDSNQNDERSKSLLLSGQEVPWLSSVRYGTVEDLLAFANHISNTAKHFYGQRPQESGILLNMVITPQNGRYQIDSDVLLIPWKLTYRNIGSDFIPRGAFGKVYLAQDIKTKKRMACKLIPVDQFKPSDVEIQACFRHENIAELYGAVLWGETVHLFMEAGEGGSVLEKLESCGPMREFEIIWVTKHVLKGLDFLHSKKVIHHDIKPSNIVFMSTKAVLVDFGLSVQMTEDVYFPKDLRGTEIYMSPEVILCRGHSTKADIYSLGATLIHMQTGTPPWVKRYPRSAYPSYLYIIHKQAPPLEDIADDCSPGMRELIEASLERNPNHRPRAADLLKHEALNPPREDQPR
As to the kind of experiment: High Throughput Cot Biochemical Assay (KinEASE TR-FRET). As to conditions: Cot biochemical HTRF (KinEASE TR-FRET) assay; read-out: IC50 HTRF. A digest of the protocol:
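First, purified human Cot (aa 30-397) at 5 nM phosphorylates an XL665-labeled STK3 peptide (1 μM) at 400 μM ATP, pH 7.0, 0.1% DMSO. Then a europium-conjugated phospho-specific antibody binds the product, giving the TR-FRET signal.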
(In general: In TR-FRET formats the signal depends on donor and acceptor labels being close together.)

What is called EC50 is the concentration giving half of the maximal effect. The IC50 is the midpoint of a concentration-inhibition curve. Consider `CC(C)(C)N1CCC(n2cc([C@@H](Nc3cc(Cl)c4ncc(C#N)c(Nc5cc(Cl)c(F)cc5F)c4c3)c3ccc(Cl)cc3)nn2)CC1` [Example 693, (S)-6-(((1-(1-(tert-butyl)piperidin-4-yl)-1H-1,2,3-triazol-4-yl)(4-chlorophenyl)methyl)amino)-8-chloro-4-((5-chloro-2,4-difluorophenyl)amino)quinoline-3-carbonitrile], for which the EC50 in test [1] was 1540 nM. Besides, the IC50 in test [2] is 46 nM.
The matching figures for `CC(C)(C)N1CCC(n2cc([C@@H](Nc3cc(Cl)c4ncc(C#N)c(Nc5c(F)ccc(Cl)c5F)c4c3)c3ccc(Cl)cc3)nn2)CC1` [Example 694, (S)-6-(((1-(1-(tert-butyl)piperidin-4-yl)-1H-1,2,3-triazol-4-yl)(4-chlorophenyl)methyl)amino)-8-chloro-4-((3-chloro-2,6-difluorophenyl)amino)quinoline-3-carbonitrile]: 843 nM and 20 nM.
Turning to `CC(C)(C)N1CCC(n2cc([C@@H](Nc3cc(Cl)c4ncc(C#N)c(Nc5ccc(F)c(Cl)c5F)c4c3)c3ccc(Cl)cc3)nn2)CC1` [Example 695, (S)-6-(((1-(1-(tert-butyl)piperidin-4-yl)-1H-1,2,3-triazol-4-yl)(4-chlorophenyl)methyl)amino)-8-chloro-4-((3-chloro-2,4-difluorophenyl)amino)quinoline-3-carbonitrile], in test [1], the EC50 worked out at 434 nM. The IC50 in test [2] is 19 nM.
The corresponding values for `CC(C)(C)N1CCC(n2cc([C@@H](Nc3cc(Cl)c4ncc(C#N)c(Nc5cc(F)cc(Cl)c5)c4c3)c3ccc(Cl)cc3)nn2)CC1` [Example 696, (S)-6-(((1-(1-(tert-butyl)piperidin-4-yl)-1H-1,2,3-triazol-4-yl)(4-chlorophenyl)methyl)amino)-8-chloro-4-((3-chloro-5-fluorophenyl)amino)quinoline-3-carbonitrile] are 3290 nM and 85 nM.
The matching figures for `CC(Nc1c(C#N)cnc2c(Cl)cc(N[C@@H](c3ccc(Cl)cc3)c3cn(C4CCN(C(C)(C)C)CC4)nn3)cc12)c1ccccn1` (stereo partly drawn) [Example 697, 6-(((S)-(1-(1-(tert-butyl)piperidin-4-yl)-1H-1,2,3-triazol-4-yl)(4-chlorophenyl)methyl)amino)-8-chloro-4-((1-(pyridin-2-yl)ethyl)amino)quinoline-3-carbonitrile]: 17100 nM and greater than 10000 nM.
`CC(C)(C)N1CCC(n2cc([C@@H](Nc3cc(Cl)c4ncc(C#N)c(NCC5CC5)c4c3)c3ccc(Cl)cc3)nn2)CC1` [Example 698, (S)-6-(((1-(1-(tert-butyl)piperidin-4-yl)-1H-1,2,3-triazol-4-yl)(4-chlorophenyl)methyl)amino)-8-chloro-4-((cyclopropylmethyl)amino) quinoline-3-carbonitrile]: the EC50 in test [1] came out at 16100 nM. In addition, the IC50 in test [2] was 317 nM.
The corresponding values for `CC(Nc1c(C#N)cnc2c(Cl)cc(N[C@@H](c3ccc(Cl)cc3)c3cn(C4CCN(C(C)(C)C)CC4)nn3)cc12)c1cccnc1` (stereo partly drawn) [Example 699, 6-(((S)-(1-(1-(tert-butyl)piperidin-4-yl)-1H-1,2,3-triazol-4-yl)(4-chlorophenyl)methyl)amino)-8-chloro-4-((1-(pyridin-3-yl)ethyl)amino)quinoline-3-carbonitrile] are 10600 nM and 379 nM.
The matching figures for `N#Cc1cnc2c(Cl)cc(N[C@@H](c3ccc(Cl)cc3)c3cn(C4CCN(C5COC5)CC4)nn3)cc2c1Nc1ccc(O)c(Cl)c1` [Example 700, (S)-8-chloro-4-((3-chloro-4-hydroxyphenyl)amino)-6-(((4-chlorophenyl)(1-(1-(oxetan-3-yl)piperidin-4-yl)-1H-1,2,3-triazol-4-yl)methyl)amino) quinoline-3-carbonitrile]: 2240 nM and 444 nM.
The corresponding values for `CC(C)(C)N1CCC(n2cc([C@@H](Nc3cc(Cl)c4ncc(C#N)c(Nc5ccc(O)c(Cl)c5)c4c3)c3ccc(Cl)cc3)nn2)CC1` [Example 701, (S)-6-(((1-(1-(tert-butyl)piperidin-4-yl)-1H-1,2,3-triazol-4-yl)(4-chlorophenyl)methyl)amino)-8-chloro-4-((3-chloro-4-hydroxyphenyl)amino) quinoline-3-carbonitrile] are 795 nM and 48 nM.
As to `CC(C)(C)N1CCC(n2cc([C@@H](Nc3cc(Cl)c4ncc(C#N)c(NC5CCC5)c4c3)c3ccc(Cl)cc3)nn2)CC1` [Example 702, (S)-6-(((1-(1-(tert-butyl)piperidin-4-yl)-1H-1,2,3-triazol-4-yl)(4-chlorophenyl)methyl)amino)-8-chloro-4-(cyclobutylamino)quinoline-3-carbonitrile], in test [1], the EC50 was 17600 nM. In test [2], the IC50 turned out to be 314 nM.
`CC(C)(C)N1CCC(n2cc([C@@H](Nc3cc(Cl)c4ncc(C#N)c(NCCc5ccccc5)c4c3)c3ccc(Cl)cc3)nn2)CC1` [Example 703, (S)-6-(((1-(1-(tert-butyl)piperidin-4-yl)-1H-1,2,3-triazol-4-yl)(4-chlorophenyl)methyl)amino)-8-chloro-4-(phenethylamino)quinoline-3-carbonitrile]: the EC50 in test [1] is 12000 nM. Moreover, in test [2], the IC50 was determined as 95 nM.
The corresponding values for `C[C@@H](Nc1c(C#N)cnc2c(Cl)cc(N[C@@H](c3ccc(Cl)cc3)c3cn(C4CCN(C(C)(C)C)CC4)nn3)cc12)c1ccccc1` [Example 704, 6-(((S)-(1-(1-(tert-butyl)piperidin-4-yl)-1H-1,2,3-triazol-4-yl)(4-chlorophenyl)methyl)amino)-8-chloro-4-(((R)-1-phenylethyl)amino)quinoline-3-carbonitrile] are 3510 nM and 37 nM.
The matching figures for `C[C@H](Nc1c(C#N)cnc2c(Cl)cc(N[C@@H](c3ccc(Cl)cc3)c3cn(C4CCN(C(C)(C)C)CC4)nn3)cc12)c1ccccc1` [Example 705, 6-(((S)-(1-(1-(tert-butyl)piperidin-4-yl)-1H-1,2,3-triazol-4-yl)(4-chlorophenyl)methyl)amino)-8-chloro-4-(((S)-1-phenylethyl)amino)quinoline-3-carbonitrile]: 12200 nM and 2830 nM.
The matching figures for `CC(C)(C)N1CCC(n2cc([C@@H](Nc3cc(Cl)c4ncc(C#N)c(NCc5ccccc5)c4c3)c3ccc(Cl)cc3)nn2)CC1` [Example 706, (S)-4-(benzylamino)-6-(((1-(1-(tert-butyl)piperidin-4-yl)-1H-1,2,3-triazol-4-yl)(4-chlorophenyl)methyl)amino)-8-chloroquinoline-3-carbonitrile]: 12800 nM and 95 nM.
In the case of `CC1(C)CC(n2cc([C@@H](Nc3cc(F)c4ncc(C#N)c(Nc5ccc(F)c(Cl)c5)c4c3)c3ccc(Cl)cc3)nn2)CC(C)(C)N1` [Example 707, (S)-4-((3-chloro-4-fluorophenyl)amino)-6-(((4-chlorophenyl)(1-(2,2,6,6-tetramethylpiperidin-4-yl)-1H-1,2,3-triazol-4-yl)methyl)amino)-8-fluoroquinoline-3-carbonitrile], the concentration giving a half-maximal response (EC50) in test [1] worked out at 3010 nM. For the same molecule, the IC50 in test [2] stood at 134 nM.
The corresponding values for `N#Cc1cnc2c(F)cc(N[C@@H](c3ccc(Cl)cc3)c3cn(C4CCN(C5COC5)CC4)nn3)cc2c1Nc1ccc(F)c(Cl)c1` [Example 708, (S)-4-((3-chloro-4-fluorophenyl)amino)-6-(((4-chlorophenyl)(1-(1-(oxetan-3-yl)piperidin-4-yl)-1H-1,2,3-triazol-4-yl)methyl)amino)-8-fluoroquinoline-3-carbonitrile] are 533 nM and 103 nM.
The corresponding values for `CC(C)(C)N1CCC(n2cc([C@@H](Nc3cc(F)c4ncc(C#N)c(Nc5ccc(F)c(Cl)c5)c4c3)c3ccc(Cl)cc3)nn2)CC1` [Example 709, (S)-6-(((1-(1-(tert-butyl)piperidin-4-yl)-1H-1,2,3-triazol-4-yl)(4-chlorophenyl)methyl)amino)-4-((3-chloro-4-fluorophenyl)amino)-8-fluoroquinoline-3-carbonitrile] are 307 nM and 18 nM.
The matching figures for `CC(C)n1cc([C@@H](Nc2cc(Cl)c3ncc(C#N)c(Nc4ccc(F)c(Cl)c4)c3c2)c2cccc(CN(C)CCN(C)C)c2)nn1` [Example 710, (S)-8-chloro-4-((3-chloro-4-fluorophenyl)amino)-6-(((3-(((2-(dimethylamino)ethyl)(methyl)amino)methyl)phenyl) (1-isopropyl-1H-1,2,3-triazol-4-yl)methyl)amino) quinoline-3-carbonitrile]: 352 nM and 20 nM.
As for `CC(C)n1cc([C@@H](Nc2cc(Cl)c3ncc(C#N)c(Nc4ccc(F)c(Cl)c4)c3c2)c2cccc(CNCCN(C)C)c2)nn1` [Example 711, (S)-8-chloro-4-((3-chloro-4-fluorophenyl)amino)-6-(((3-(((2-(dimethylamino)ethyl)amino)methyl)phenyl)(1-isopropyl-1H-1,2,3-triazol-4-yl)methyl)amino)quinoline-3-carbonitrile], the EC50 in test [1] was greater than 10000 nM. In test [2], the IC50 amounted to 46 nM.
On to `CC(C)n1cc([C@@H](Nc2cc(Cl)c3ncc(C#N)c(Nc4ccc(F)c(Cl)c4)c3c2)c2cccc(CN(C)C)c2)nn1` [Example 712, (S)-8-chloro-4-((3-chloro-4-fluorophenyl)amino)-6-(((3-((dimethylamino)methyl)phenyl)(1-isopropyl-1H-1,2,3-triazol-4-yl)methyl)amino)quinoline-3-carbonitrile], for which, in test [1], the EC50 was 498 nM. Besides, the IC50 in test [2] worked out at 14 nM.
